In ChEMBL document CHEMBL3351989, “Structure-activity relationship and interaction studies of new SIRT1 inhibitors with the scaffold of 3-(furan-2-yl)-[1,2,4]triazolo[3,4-b][1,3,4]thiadiazole” (Bioorg Med Chem Lett, 2014):

target: T1, NAD-dependent protein deacetylase sirtuin-1 (Homo sapiens) (UniProt Q96EB6); experiment: Inhibition of SIRT1-mediated deacetylation of p53 in human MCF7 cells at 1.2 to 100 uM after 6 hrs by Western blotting; type: cell-based
T1 sequence (whole entry): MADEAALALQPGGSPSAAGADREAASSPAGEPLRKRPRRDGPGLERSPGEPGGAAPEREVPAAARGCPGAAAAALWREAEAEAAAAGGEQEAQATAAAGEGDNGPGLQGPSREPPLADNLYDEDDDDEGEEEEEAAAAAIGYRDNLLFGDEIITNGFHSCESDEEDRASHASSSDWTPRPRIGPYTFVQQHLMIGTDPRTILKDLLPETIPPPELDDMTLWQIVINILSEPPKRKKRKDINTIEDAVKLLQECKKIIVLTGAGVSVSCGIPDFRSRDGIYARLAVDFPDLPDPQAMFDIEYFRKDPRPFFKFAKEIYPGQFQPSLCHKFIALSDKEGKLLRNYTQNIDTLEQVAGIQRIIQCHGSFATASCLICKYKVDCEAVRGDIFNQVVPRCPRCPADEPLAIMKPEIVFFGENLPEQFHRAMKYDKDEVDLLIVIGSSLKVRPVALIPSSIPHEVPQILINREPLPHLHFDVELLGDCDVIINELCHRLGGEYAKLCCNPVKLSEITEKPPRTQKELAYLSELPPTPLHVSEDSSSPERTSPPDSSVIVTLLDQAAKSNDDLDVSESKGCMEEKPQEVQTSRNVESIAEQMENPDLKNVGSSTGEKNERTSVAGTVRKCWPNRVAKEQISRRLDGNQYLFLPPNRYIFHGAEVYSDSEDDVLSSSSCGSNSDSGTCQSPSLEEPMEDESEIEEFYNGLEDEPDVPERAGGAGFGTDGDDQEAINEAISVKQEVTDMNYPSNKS

inhibition | Compound
Dose-dependent effect | COc1ccc(Cc2nn3c(-c4ccco4)nnc3s2)cc1OC
Dose-dependent effect | c1ccc(-c2nn3c(-c4ccco4)nnc3s2)nc1
Dose-dependent effect | c1coc(-c2nnc3sc(C4COc5ccccc5O4)nn23)c1 (stereo not drawn)

target: T2, NAD-dependent protein deacetylase sirtuin-1 (Homo sapiens, UniProt Q96EB6); experiment: Inhibition of hexa-His-tagged recombinant human SIRT1 expressed in Escherichia coli BL21(DE3) using AMC-labeled Arg-His-Lys-Lys(ac) as substrate assessed as inhibition of deacetylation of peptide after 45 mins by fluorescence assay
T2 sequence (Q96EB6 whole entry): T1 sequence (whole entry)

IC50 | Compound
96.2 µM | CCC(c1ccccc1)c1nn2c(-c3ccco3)nnc2s1 (stereo not drawn)
29.5 µM | C=CCOc1ccc(-c2nn3c(-c4ccco4)nnc3s2)cc1
78 µM | Clc1ccc(Cc2nn3c(-c4ccco4)nnc3s2)cc1
12.2 µM | c1ccc(CCCc2nn3c(-c4ccco4)nnc3s2)cc1
75.3 µM | Cc1cccc(OCc2nn3c(-c4ccco4)nnc3s2)c1
31.3 µM | CCOc1ccc(-c2nn3c(-c4ccco4)nnc3s2)cc1
78.8 µM | c1cncc(-c2nn3c(-c4ccco4)nnc3s2)c1
47.4 µM | c1ccc(CCc2nn3c(-c4ccco4)nnc3s2)cc1
4.1 µM | COc1ccc(Cc2nn3c(-c4ccco4)nnc3s2)cc1OC
45.2 µM | c1coc(-c2nnc3sc(-c4ccc5c(c4)OCO5)nn23)c1
23.6 µM | CCOc1ccccc1-c1nn2c(-c3ccco3)nnc2s1
7.5 µM | Cc1cccc(-c2nn3c(-c4ccco4)nnc3s2)c1
35.6 µM | COc1cc(-c2nn3c(-c4ccco4)nnc3s2)cc(OC)c1OC
24.8 µM | COc1ccc(-c2nn3c(-c4ccco4)nnc3s2)cc1OC
20.3 µM | COc1cccc(-c2nn3c(-c4ccco4)nnc3s2)c1
66.6 µM | c1coc(-c2nnc3sc(-c4cnccn4)nn23)c1
> 100 µM | Fc1ccc(-c2ccc(-c3nn4c(-c5ccco5)nnc4s3)o2)cc1
48.4 µM | COc1cccc(OCc2nn3c(-c4ccco4)nnc3s2)c1
18.7 µM | Cc1ccccc1OCc1nn2c(-c3ccco3)nnc2s1
67.9 µM | CC(Oc1ccccc1)c1nn2c(-c3ccco3)nnc2s1 (stereo not drawn)
27.4 µM | Cc1ccc(-c2nn3c(-c4ccco4)nnc3s2)cc1
41 µM | COc1ccc(OCc2nn3c(-c4ccco4)nnc3s2)cc1

IC50 | Compound
3.5 µM | c1ccc(-c2nn3c(-c4ccco4)nnc3s2)nc1
76.9 µM | COc1ccc(Cc2nn3c(-c4ccco4)nnc3s2)cc1
46.7 µM | COc1ccc(-c2nn3c(-c4ccco4)nnc3s2)cc1
18.8 µM | C=CCOc1cccc(-c2nn3c(-c4ccco4)nnc3s2)c1
67 µM | c1coc(-c2nnc3sc(Cc4ccc5c(c4)OCCO5)nn23)c1
88.6 µM | c1coc(-c2nnc3sc(-c4cccs4)nn23)c1
8.9 µM | c1coc(-c2nnc3sc(C4COc5ccccc5O4)nn23)c1 (stereo not drawn)
28.7 µM | Cc1ccc(OCc2nn3c(-c4ccco4)nnc3s2)cc1C
51.2 µM | COc1ccccc1OCc1nn2c(-c3ccco3)nnc2s1
29.3 µM | Cc1ccc(OCc2nn3c(-c4ccco4)nnc3s2)cc1
65.7 µM | CCOc1cc(-c2nn3c(-c4ccco4)nnc3s2)cc(OCC)c1OCC
27.6 µM | c1ccc(-c2nn3c(-c4ccco4)nnc3s2)cc1
13.7 µM | CCOc1ccccc1OCc1nn2c(-c3ccco3)nnc2s1
19 µM | CCOc1cccc(-c2nn3c(-c4ccco4)nnc3s2)c1
20.6 µM | c1coc(-c2nnc3sc(-c4cc5ccccc5o4)nn23)c1
37.9 µM | c1ccc(Cc2nn3c(-c4ccco4)nnc3s2)cc1
40.7 µM | c1coc(-c2nnc3sc(-c4ccc5c(c4)OCCO5)nn23)c1
22 µM | c1coc(-c2nn3c(-c4ccco4)nnc3s2)c1
> 100 µM | CCC(Oc1ccccc1)c1nn2c(-c3ccco3)nnc2s1 (stereo not drawn)
49.8 µM | c1coc(-c2nnc3sc(-c4ccncc4)nn23)c1
61.3 µM | c1ccc(OCc2nn3c(-c4ccco4)nnc3s2)cc1

target: T3, NAD-dependent protein deacetylase sirtuin-1 (Homo sapiens, UniProt Q96EB6, F414A); experiment: Inhibition of human SIRT1 F414A mutant expressed in Escherichia coli BL21(DE3) using AMC-labeled Arg-His-Lys-Lys(ac) as substrate assessed as inhibition of deacetylation of peptide after 45 mins by fluorescence assay
T3 sequence (Q96EB6 2-747 F414A limits assumed): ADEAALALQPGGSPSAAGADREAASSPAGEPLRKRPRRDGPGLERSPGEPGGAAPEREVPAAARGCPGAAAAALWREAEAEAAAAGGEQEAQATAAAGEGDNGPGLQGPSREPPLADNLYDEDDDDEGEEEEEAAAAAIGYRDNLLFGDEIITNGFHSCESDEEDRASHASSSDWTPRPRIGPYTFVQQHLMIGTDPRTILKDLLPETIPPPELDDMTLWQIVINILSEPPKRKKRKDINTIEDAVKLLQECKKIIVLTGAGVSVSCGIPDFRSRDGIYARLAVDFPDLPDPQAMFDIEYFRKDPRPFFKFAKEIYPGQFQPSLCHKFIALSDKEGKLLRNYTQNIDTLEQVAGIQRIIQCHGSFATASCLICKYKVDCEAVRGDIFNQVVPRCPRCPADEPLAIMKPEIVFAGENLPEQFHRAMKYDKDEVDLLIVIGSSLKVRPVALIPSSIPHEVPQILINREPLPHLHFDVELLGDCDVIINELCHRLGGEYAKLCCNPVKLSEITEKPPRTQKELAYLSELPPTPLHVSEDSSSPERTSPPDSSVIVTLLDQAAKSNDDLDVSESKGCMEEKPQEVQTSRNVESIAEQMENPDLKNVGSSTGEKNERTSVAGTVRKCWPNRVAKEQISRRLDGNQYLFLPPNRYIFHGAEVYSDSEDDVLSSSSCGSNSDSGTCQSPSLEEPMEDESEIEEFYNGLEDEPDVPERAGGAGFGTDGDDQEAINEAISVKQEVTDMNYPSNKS

IC50 | Compound
44 µM | c1ccc(-c2nn3c(-c4ccco4)nnc3s2)nc1

target: T2, NAD-dependent protein deacetylase sirtuin-1; experiment: Inhibition of hexa-His-tagged recombinant human SIRT1 expressed in Escherichia coli BL21(DE3) using AMC-labeled Arg-His-Lys-Lys(ac) as substrate assessed as inhibition of deacetylation of peptide after 45 mins by Lineweaver-Burke plot method

Ki | Compound
600 nM | c1ccc(-c2nn3c(-c4ccco4)nnc3s2)nc1

target: T3, NAD-dependent protein deacetylase sirtuin-1; experiment: Inhibition of human SIRT1 F414A mutant expressed in Escherichia coli BL21(DE3) using AMC-labeled Arg-His-Lys-Lys(ac) as substrate assessed as inhibition of deacetylation of peptide after 45 mins by Lineweaver-Burke plot method

Ki | Compound
24.1 µM | c1ccc(-c2nn3c(-c4ccco4)nnc3s2)nc1

target: T4, NAD-dependent protein deacetylase sirtuin-1 (Homo sapiens, UniProt Q96EB6, F273L); experiment: Inhibition of human SIRT1 F273L mutant expressed in Escherichia coli BL21(DE3) using AMC-labeled Arg-His-Lys-Lys(ac) as substrate assessed as inhibition of deacetylation of peptide after 45 mins by Lineweaver-Burke plot method
T4 sequence (Q96EB6 2-747 F273L limits assumed): as the sequence (Q96EB6 2-747 F414A limits assumed) above, with F272L, A413F counted along it

Ki | Compound
58.9 µM | c1ccc(-c2nn3c(-c4ccco4)nnc3s2)nc1

target: T5, NAD-dependent protein deacetylase sirtuin-1 (Homo sapiens, UniProt Q96EB6, I347A); experiment: Inhibition of human SIRT1 I347A mutant expressed in Escherichia coli BL21(DE3) using AMC-labeled Arg-His-Lys-Lys(ac) as substrate assessed as inhibition of deacetylation of peptide after 45 mins by Lineweaver-Burke plot method
T5 sequence (Q96EB6 2-747 I347A limits assumed): as the sequence (Q96EB6 2-747 F414A limits assumed) above, with I346A, A413F counted along it

Ki | Compound
39.1 µM | c1ccc(-c2nn3c(-c4ccco4)nnc3s2)nc1

target: T4, NAD-dependent protein deacetylase sirtuin-1; experiment: Inhibition of human SIRT1 F273L mutant expressed in Escherichia coli BL21(DE3) using AMC-labeled Arg-His-Lys-Lys(ac) as substrate assessed as inhibition of deacetylation of peptide after 45 mins by fluorescence assay

IC50 | Compound
133 µM | c1ccc(-c2nn3c(-c4ccco4)nnc3s2)nc1

target: T5, NAD-dependent protein deacetylase sirtuin-1; experiment: Inhibition of human SIRT1 I347A mutant expressed in Escherichia coli BL21(DE3) using AMC-labeled Arg-His-Lys-Lys(ac) as substrate assessed as inhibition of deacetylation of peptide after 45 mins by fluorescence assay

IC50 | Compound
87.9 µM | c1ccc(-c2nn3c(-c4ccco4)nnc3s2)nc1
